{"source": "patent US10668055B2", "about": "“Cancer treatment using combinations of ERK and RAF inhibitors” (BIOMED VALLEY DISCOVERIES, INC., priority 2013, dated 2020)", "key": {"A375 cells [1]": {"system": "A375 cells", "method": "(§2) Cancer cell lines were maintained in cell culture under standard media and serum conditions. For dose escalation studies, A375 cells were split, grown to about 40-60% confluence, and then treated with the initial dose of the specified drug.\n(§3) Proliferation assays were used to track changes in sensitivity to the escalated agent(s) at appropriate time intervals (e.g. each month, although the timing is dependent on adequate cell numbers being available). For proliferation assays, cells were seeded in 96-well plates at 3000 cells per well in drug-free DMEM medium containing 10% FBS and allowed to adhere overnight prior to addition of compound or vehicle control. […] Test compounds were incubated with the cells for 96 hours at 37° C. and 5% CO2 in a humidified atmosphere. Alamar Blue 10% (v/v) was then added and incubated for 4 hours and fluorescent product was detected using a BMG FLUOstar plate reader. The average media only background value was deducted and the data analyzed using a 4-parameter logistic equation in GraphPad Prism. Paclitaxel was used as a positive control."}, "G-361": {"system": "G-361", "test": "Single agent proliferation assay (CellTiter-Glo, 72 h)", "format": "cell-based", "details": "Homo sapiens, G-361, 72 h", "experimental": "(§1) Cells were seeded in 96-well plates at the densities and media conditions indicated in Table 17 and allowed to adhere overnight prior to addition of compound or vehicle control. Compounds were prepared from DMSO stocks to give the desired final concentrations. The final DMSO concentration was constant at 0.1%. Test compounds were incubated with the cells for 72 h at 37° C., 5% CO2 in a humidified atmosphere. CellTiter-Glo® reagent (Promega, Madison, Wis.) was added according to manufacturer's instructions and luminescence detected using the BMG FLUOstar plate reader (BMG Labtech, Ortenberg, Germany). The average media only background value was deducted and the data analysed using a 4-parameter logistic equation in GraphPad Prism (GraphPad Software, La Jolla, Calif.)."}, "A375 cells [2]": {"system": "A375 cells", "test": "Proliferation assay (Alamar Blue, 96 hours) on parental and dose-escalated A375 cell lines", "details": "Homo sapiens", "method": "as §2, §3"}, "A375": {"system": "A375", "test": "Single agent proliferation assay (CellTiter-Glo, 72 h)", "format": "cell-based, human", "details": "Homo sapiens, A-375; A375, 72 h", "experimental": "as §1"}}, "note": "Read-outs that look alike come from different tables or passages of the source.", "data": [{"smiles": "CC(=O)O[C@H]1C(=O)[C@@]2(C)[C@H]([C@H](OC(=O)c3ccccc3)[C@]3(O)C[C@H](OC(=O)[C@H](O)[C@@H](NC(=O)c4ccccc4)c4ccccc4)C(C)=C1C3(C)C)[C@]1(OC(C)=O)CO[C@@H]1C[C@@H]2O", "note": "[Paclitaxel]", "values": [{"measurement": "IC50", "setting": "A375 cells [1]", "value": 4.7, "unit": "nM"}, {"measurement": "IC50", "setting": "G-361", "value": 7, "unit": "nM"}, {"measurement": "IC50", "setting": "A375 cells [2]; A-375, read-out: Relative IC50, Month 1, Par = Parental cell line", "value": 2.2, "unit": "nM"}, {"measurement": "IC50", "setting": "A375 cells [2]; A-375, read-out: Relative IC50, Month 1, cell line BVD-523 (0.48 μM)", "value": 3.4, "unit": "nM"}, {"measurement": "IC50", "setting": "A375 cells [2]; A-375, read-out: Relative IC50, Month 1, cell line Dab (15 nM Dab)", "value": 3.3, "unit": "nM"}, {"measurement": "IC50", "setting": "A375 cells [2]; A-375, read-out: Relative IC50, Month 1, cell line Dab/523 (7.5 nM/0.24 μM)", "value": 3.4, "unit": "nM"}, {"measurement": "IC50", "setting": "A375 cells [2]; A-375, read-out: Relative IC50, Month 1, cell line Tram (growing in 2 nM Tram)", "value": 3, "unit": "nM"}, {"measurement": "IC50", "setting": "A375 cells [2]; A-375, read-out: Relative IC50, Month 2, Par = Parental cell line", "value": 3.7, "unit": "nM"}, {"measurement": "IC50", "setting": "A375 cells [2]; A-375, read-out: Relative IC50, Month 2, cell line BVD-523 (0.8 μM)", "value": 6.5, "unit": "nM"}, {"measurement": "IC50", "setting": "A375 cells [2]; A-375, read-out: Relative IC50, Month 2, cell line Dab (127 nM Dab)", "value": 1.9, "unit": "nM"}, {"measurement": "IC50", "setting": "A375 cells [2]; A-375, read-out: Relative IC50, Month 2, cell line Dab/523 (12.5 nM/0.4 μM)", "value": 4.2, "unit": "nM"}, {"measurement": "IC50", "setting": "A375 cells [2]; A-375, read-out: Relative IC50, Month 2, cell line Tra (8 nM Tram)", "value": 8.9, "unit": "nM"}, {"measurement": "IC50", "setting": "A375 cells [2]; A-375, read-out: Relative IC50, Month 3, Par = Parental cell line", "value": 1.9, "unit": "nM"}, {"measurement": "IC50", "setting": "A375 cells [2]; A-375, read-out: Relative IC50, Month 3, cell line Dab (3.2 μM Dab)", "value": 1.9, "unit": "nM"}, {"measurement": "IC50", "setting": "A375", "value": 5, "unit": "nM"}]}]}
